Source: the NIST ThermoML archive (doi:10.1016/j.jct.2009.09.013)

Assay: xn = mol fraction of the nth substance listed
Settings: 101 kPa, Liquid; for speed of sound: Sing-around technique in a fixed-path interferometer; for kinematic viscosity: Vibrating wire viscometry; for mass density: Vibrating tube method

CCCCO [butan-1-ol] + OCCCCO
x2 = 0
Settings | kinematic viscosity [m2/s] | mass density [kg/m3] | speed of sound [m/s]
293.03 K | – | – | 1257
298.02 K | 3.24e-06 | – | –
298.07 K | – | – | 1239.7
298.15 K | – | 805.77 | –
302.47 K | 2.9e-06 | – | –
303.15 K | – | 801.928 | –
303.35 K | – | – | 1221.6
308 K | 2.53e-06 | – | –
308.15 K | – | 798.054 | –
308.34 K | – | – | 1204.8
312.96 K | 2.25e-06 | – | –
313.15 K | – | 794.146 | –
313.37 K | – | – | 1188
318.15 K | – | 790.196 | –
318.37 K | – | – | 1171.4
318.61 K | 1.99e-06 | – | –

OCCCCO [1,4-butanediol] + CCCCO
Settings | kinematic viscosity [m2/s] | mass density [kg/m3] | speed of sound [m/s]
293.02 K, x1 = 1 | – | – | 1614.9
293.03 K, x1 = 0.7946 | – | – | 1537.8
293.05 K, x1 = 0.6478 | – | – | 1482.1
293.05 K, x1 = 0.9234 | – | – | 1586.4
293.06 K, x1 = 0.3571 | – | – | 1375.1
293.06 K, x1 = 0.4979 | – | – | 1426
293.07 K, x1 = 0.2 | – | – | 1321
293.08 K, x1 = 0.051 | – | – | 1272.7
298.01 K, x1 = 1 | 6.99e-05 | – | –
298.06 K, x1 = 0.4592 | 1.56e-05 | – | –
298.06 K, x1 = 1 | – | – | 1602.6
298.07 K, x1 = 0.1507 | 5.44e-06 | – | –
298.07 K, x1 = 0.9374 | 6e-05 | – | –
298.08 K, x1 = 0.2 | – | – | 1304.8
298.08 K, x1 = 0.5676 | 2.18e-05 | – | –
298.08 K, x1 = 0.6478 | – | – | 1468.3
298.08 K, x1 = 0.7946 | – | – | 1524.7
298.09 K, x1 = 0.3571 | – | – | 1359.7
298.09 K, x1 = 0.7435 | 3.62e-05 | – | –
298.1 K, x1 = 0.051 | – | – | 1255.7
298.1 K, x1 = 0.4979 | – | – | 1411.3
298.1 K, x1 = 0.6576 | 2.84e-05 | – | –
298.1 K, x1 = 0.8108 | 4.34e-05 | – | –
298.1 K, x1 = 0.9234 | – | – | 1573.9
298.14 K, x1 = 0.2986 | 9.22e-06 | – | –
298.15 K, x1 = 0.1507 | – | 837.834 | –
298.15 K, x1 = 0.2986 | – | 869.164 | –
298.15 K, x1 = 0.4592 | – | 902.986 | –
298.15 K, x1 = 0.5676 | – | 925.394 | –
298.15 K, x1 = 0.6576 | – | 943.952 | –
298.15 K, x1 = 0.7435 | – | 961.447 | –
298.15 K, x1 = 0.8108 | – | 974.991 | –
298.15 K, x1 = 0.9374 | – | 1000.24 | –
298.15 K, x1 = 1 | – | 1012.72 | –
302.51 K, x1 = 1 | 5.63e-05 | – | –
302.99 K, x1 = 0.9374 | 4.76e-05 | – | –
303 K, x1 = 0.6576 | 2.33e-05 | – | –
303.01 K, x1 = 0.1507 | 4.68e-06 | – | –
303.01 K, x1 = 0.5676 | 1.8e-05 | – | –
303.01 K, x1 = 0.7435 | 2.93e-05 | – | –
303.01 K, x1 = 0.8108 | 3.49e-05 | – | –
303.04 K, x1 = 0.4592 | 1.3e-05 | – | –
303.06 K, x1 = 0.2986 | 7.83e-06 | – | –
303.15 K, x1 = 0.1507 | – | 834.13 | –
303.15 K, x1 = 0.2986 | – | 865.589 | –
303.15 K, x1 = 0.4592 | – | 899.553 | –
303.15 K, x1 = 0.5676 | – | 922.055 | –
303.15 K, x1 = 0.6576 | – | 940.685 | –
303.15 K, x1 = 0.7435 | – | 958.245 | –
303.15 K, x1 = 0.8108 | – | 971.848 | –
303.15 K, x1 = 0.9374 | – | 997.175 | –
303.15 K, x1 = 1 | – | 1009.69 | –
303.3 K, x1 = 1 | – | – | 1590.1
303.36 K, x1 = 0.2 | – | – | 1287.8
303.36 K, x1 = 0.4979 | – | – | 1396.1
303.36 K, x1 = 0.7946 | – | – | 1511
303.36 K, x1 = 0.9234 | – | – | 1561
303.37 K, x1 = 0.051 | – | – | 1238
303.37 K, x1 = 0.3571 | – | – | 1343.7
303.39 K, x1 = 0.6478 | – | – | 1453.8
308.06 K, x1 = 1 | 4.37e-05 | – | –
308.15 K, x1 = 0.1507 | – | 830.397 | –
308.15 K, x1 = 0.2986 | – | 861.995 | –
308.15 K, x1 = 0.4592 | – | 896.107 | –
308.15 K, x1 = 0.5676 | – | 918.702 | –
308.15 K, x1 = 0.6576 | – | 937.408 | –
308.15 K, x1 = 0.7435 | – | 955.036 | –
308.15 K, x1 = 0.8108 | – | 968.692 | –
308.15 K, x1 = 0.9374 | – | 994.107 | –
308.15 K, x1 = 1 | – | 1006.66 | –
308.16 K, x1 = 0.9374 | 3.79e-05 | – | –
308.17 K, x1 = 0.6576 | 1.9e-05 | – | –
308.18 K, x1 = 0.4592 | 1.09e-05 | – | –
308.19 K, x1 = 0.8108 | 2.8e-05 | – | –
308.22 K, x1 = 0.1507 | 3.96e-06 | – | –
308.22 K, x1 = 0.2986 | 6.63e-06 | – | –
308.23 K, x1 = 0.5676 | 1.48e-05 | – | –
308.24 K, x1 = 0.7435 | 2.37e-05 | – | –
308.32 K, x1 = 0.7946 | – | – | 1498.4
308.32 K, x1 = 1 | – | – | 1578.3
308.33 K, x1 = 0.051 | – | – | 1221.5
308.33 K, x1 = 0.9234 | – | – | 1548.9
308.35 K, x1 = 0.3571 | – | – | 1328.7
308.35 K, x1 = 0.4979 | – | – | 1381.9
308.36 K, x1 = 0.2 | – | – | 1272
308.38 K, x1 = 0.6478 | – | – | 1440.3
313.12 K, x1 = 1 | 3.51e-05 | – | –
313.15 K, x1 = 0.1507 | – | 826.639 | –
313.15 K, x1 = 0.2986 | – | 858.379 | –
313.15 K, x1 = 0.4592 | – | 892.64 | –
313.15 K, x1 = 0.5676 | – | 915.331 | –
313.15 K, x1 = 0.6576 | – | 934.116 | –
313.15 K, x1 = 0.7435 | – | 951.814 | –
313.15 K, x1 = 0.8108 | – | 965.521 | –
313.15 K, x1 = 0.9374 | – | 991.027 | –
313.15 K, x1 = 1 | – | 1003.63 | –
313.19 K, x1 = 0.9374 | 3.06e-05 | – | –
313.2 K, x1 = 0.6757 | 1.57e-05 | – | –
313.21 K, x1 = 0.5676 | 1.24e-05 | – | –
313.23 K, x1 = 0.4592 | 9.16e-06 | – | –
313.23 K, x1 = 0.7435 | 1.95e-05 | – | –
313.23 K, x1 = 0.8108 | 2.29e-05 | – | –
313.26 K, x1 = 0.1507 | 3.36e-06 | – | –
313.29 K, x1 = 0.2986 | 5.65e-06 | – | –
313.32 K, x1 = 0.051 | – | – | 1204.9
313.33 K, x1 = 0.7946 | – | – | 1485.7
313.35 K, x1 = 1 | – | – | 1566.5
313.36 K, x1 = 0.3571 | – | – | 1313.8
313.36 K, x1 = 0.9234 | – | – | 1536.8
313.37 K, x1 = 0.2 | – | – | 1256.2
313.37 K, x1 = 0.4979 | – | – | 1367.6
313.39 K, x1 = 0.6478 | – | – | 1426.9
318.15 K, x1 = 0.1507 | – | 822.854 | –
318.15 K, x1 = 0.2986 | – | 854.74 | –
318.15 K, x1 = 0.4592 | – | 889.157 | –
318.15 K, x1 = 0.5676 | – | 911.95 | –
318.15 K, x1 = 0.6576 | – | 930.812 | –
318.15 K, x1 = 0.7435 | – | 948.578 | –
318.15 K, x1 = 0.8108 | – | 962.345 | –
318.15 K, x1 = 0.9374 | – | 987.943 | –
318.15 K, x1 = 1 | – | 1000.58 | –
318.29 K, x1 = 0.051 | – | – | 1188.5
318.3 K, x1 = 0.7946 | – | – | 1473.1
318.35 K, x1 = 0.3571 | – | – | 1299.1
318.35 K, x1 = 0.4979 | – | – | 1353.5
318.35 K, x1 = 1 | – | – | 1554.8
318.36 K, x1 = 0.9234 | – | – | 1525
318.38 K, x1 = 0.2 | – | – | 1240.6
318.38 K, x1 = 0.6478 | – | – | 1413.6
318.56 K, x1 = 0.8108 | 1.87e-05 | – | –
318.72 K, x1 = 1 | 2.79e-05 | – | –
318.73 K, x1 = 0.9374 | 2.45e-05 | – | –
318.74 K, x1 = 0.6575 | 1.29e-05 | – | –
318.75 K, x1 = 0.5676 | 1.03e-05 | – | –
318.75 K, x1 = 0.7435 | 1.59e-05 | – | –
318.76 K, x1 = 0.4592 | 7.65e-06 | – | –
318.8 K, x1 = 0.1507 | 2.79e-06 | – | –
318.81 K, x1 = 0.2986 | 4.76e-06 | – | –
